Test [1] concerns the target T1, Aryl hydrocarbon receptor (Homo sapiens, UniProt P35869).
T1 sequence (P35869 whole entry): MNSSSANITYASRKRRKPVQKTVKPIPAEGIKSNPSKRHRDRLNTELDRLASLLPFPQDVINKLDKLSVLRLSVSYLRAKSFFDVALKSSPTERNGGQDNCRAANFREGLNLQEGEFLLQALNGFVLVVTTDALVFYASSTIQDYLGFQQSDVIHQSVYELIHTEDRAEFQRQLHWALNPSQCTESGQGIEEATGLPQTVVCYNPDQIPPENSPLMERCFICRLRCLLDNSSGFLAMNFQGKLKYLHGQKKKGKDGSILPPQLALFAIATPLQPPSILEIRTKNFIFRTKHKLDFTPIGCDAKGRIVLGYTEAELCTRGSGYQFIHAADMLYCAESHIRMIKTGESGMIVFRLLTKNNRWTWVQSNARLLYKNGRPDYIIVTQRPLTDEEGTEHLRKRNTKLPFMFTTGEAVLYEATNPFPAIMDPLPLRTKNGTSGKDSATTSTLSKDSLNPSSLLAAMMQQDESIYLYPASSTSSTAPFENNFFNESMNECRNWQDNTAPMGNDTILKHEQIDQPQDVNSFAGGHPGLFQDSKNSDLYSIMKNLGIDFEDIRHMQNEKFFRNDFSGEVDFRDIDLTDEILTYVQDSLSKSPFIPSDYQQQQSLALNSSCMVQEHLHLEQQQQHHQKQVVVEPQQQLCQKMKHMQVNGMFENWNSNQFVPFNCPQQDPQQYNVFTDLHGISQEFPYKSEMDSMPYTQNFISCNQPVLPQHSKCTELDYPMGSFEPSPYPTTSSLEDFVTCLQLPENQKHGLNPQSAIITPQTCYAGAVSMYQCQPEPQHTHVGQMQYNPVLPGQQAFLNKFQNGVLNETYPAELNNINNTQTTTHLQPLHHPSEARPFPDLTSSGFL
Kind of test: Agonist activity at AHR in human HepG2 cells incubated for 4.5 hrs by Luciferase reporter assay. It is filed as cell-based. (In general: Reporter assays use an easily measured gene product as a stand-in for the process of interest.)

Test [2] addresses T1, Aryl hydrocarbon receptor. Briefly: Agonist activity at AHR in human AZ-AHR stable HepG2 cells by Luciferase reporter assay.
Test [3] concerns the target T1, Aryl hydrocarbon receptor. Kind of test: Agonist activity at AHR in human MDA-MB-468 cells incubated for 24 hrs by Western blot analysis. It is filed as cell-based. A general note: A western blot detects proteins with antibodies after separation by electrophoresis.

In turn, `O=C(c1cccc(C(F)(F)F)n1)c1c[nH]c2ccccc12` had an EC50 in test [1] of 2 nM.

On to `OC(c1ccncc1)(c1cc2ccccc2[nH]1)c1cc2ccccc2[nH]1`, for which, in test [2], the midpoint of the response, the EC50, lay at 1600 nM.

Turning to `N#Cc1cccc(C(=O)c2c[nH]c3ccccc23)n1`, a half-maximal response in test [1] (EC50) required 2 nM.

Consider `Brc1c(Br)c(Br)c2c([nH]c3c(Br)c(Br)c(Br)c(Br)c32)c1Br`, for which the EC50 in test [3] is below 1000 nM.

For the compound `Clc1c(Cl)c(Cl)c2c([nH]c3c(Cl)c(Cl)c(Cl)c(Cl)c32)c1Cl`, the EC50 in test [3] was below 1000 nM.

Consider `CCOn1c(C(O)(c2ccncc2)c2cc3ccccc3[nH]2)cc2ccccc21` (stereo unspecified), for which a half-maximal response in test [2] (EC50) required 1600 nM.

By EC50 is commonly meant the concentration at which the effect is half-maximal. A low value points to higher potency in that assay.

The values above are taken from ChEMBL document CHEMBL4732209, “Indole scaffolds as a promising class of the aryl hydrocarbon receptor ligands” (Eur J Med Chem, 2021).
